Data: ChEMBL document CHEMBL1944578, “Synthesis and anticonvulsant activity of novel 2,6-diketopiperazine derivatives. Part 2: Perhydropyrido[1,2-a]pyrazines” (Eur J Med Chem, 2012)
Active and inactive are the calls of the source. The calls are words filed in the database; no cut-off is given here.

What was measured:
Mus musculus [1] = assay: Anticonvulsant activity in Carworth farms No.1 albino mouse assessed as protection against maximum electroshock at 30 mg/kg, ip measured after 0.5 hrs; format: functional, organism-based; design: dose 30 mg/kg
Mus musculus [2] = assay: Anticonvulsant activity in Carworth farms No.1 albino mouse assessed as protection against maximum electroshock at 100 mg/kg, ip measured after 0.5 hrs; format: functional, organism-based; design: dose 100 mg/kg
Mus musculus [3] = assay: Anticonvulsant activity in Carworth farms No.1 albino mouse assessed as protection against maximum electroshock at 300 mg/kg, ip measured after 0.5 hrs; format: functional, organism-based; design: dose 300 mg/kg
Mus musculus [4] = assay: Anticonvulsant activity in Carworth farms No.1 albino mouse assessed as protection against maximum electroshock at 30 mg/kg, ip measured after 4 hrs; format: functional, organism-based; design: dose 30 mg/kg
Mus musculus [5] = assay: Anticonvulsant activity in Carworth farms No.1 albino mouse assessed as protection against maximum electroshock at 100 mg/kg, ip measured after 4 hrs; format: functional, organism-based; design: dose 100 mg/kg
Mus musculus [6] = assay: Anticonvulsant activity in Carworth farms No.1 albino mouse assessed as protection against maximum electroshock at 300 mg/kg, ip measured after 4 hrs; format: functional, organism-based; design: dose 300 mg/kg
Mus musculus [7] = assay: Anticonvulsant activity in Carworth farms No.1 albino mouse assessed as protection against subcutaneous metrazole-induced seizures at 30 mg/kg, ip measured after 0.5 hrs; format: functional, organism-based; design: dose 30 mg/kg
Mus musculus [8] = assay: Anticonvulsant activity in Carworth farms No.1 albino mouse assessed as protection against subcutaneous metrazole-induced seizures at 100 mg/kg, ip measured after 0.5 hrs; format: functional, organism-based; design: dose 100 mg/kg
Mus musculus [9] = assay: Anticonvulsant activity in Carworth farms No.1 albino mouse assessed as protection against subcutaneous metrazole-induced seizures at 300 mg/kg, ip measured after 0.5 hrs; format: functional, organism-based; design: dose 300 mg/kg
Mus musculus [10] = assay: Anticonvulsant activity in Carworth farms No.1 albino mouse assessed as protection against subcutaneous metrazole-induced seizures at 30 mg/kg, ip measured after 4 hrs; format: functional, organism-based; design: dose 30 mg/kg
Mus musculus [11] = assay: Anticonvulsant activity in Carworth farms No.1 albino mouse assessed as protection against subcutaneous metrazole-induced seizures at 100 mg/kg, ip measured after 4 hrs; format: functional, organism-based; design: dose 100 mg/kg
Mus musculus [12] = assay: Anticonvulsant activity in Carworth farms No.1 albino mouse assessed as protection against subcutaneous metrazole-induced seizures at 300 mg/kg, ip measured after 4 hrs; format: functional, organism-based; design: dose 300 mg/kg
Mus musculus [13] = assay: Neurotoxicity in Carworth farms No.1 albino mouse assessed as neurological impairment at 30 mg/kg, ip measured after 0.5 hrs; format: toxicity, organism-based; design: dose 30 mg/kg, route intraperitoneal; details: in vivo
Mus musculus [14] = assay: Neurotoxicity in Carworth farms No.1 albino mouse assessed as neurological impairment at 100 mg/kg, ip measured after 0.5 hrs; format: toxicity, organism-based; design: dose 100 mg/kg, route intraperitoneal; details: in vivo
Mus musculus [15] = assay: Neurotoxicity in Carworth farms No.1 albino mouse assessed as neurological impairment at 300 mg/kg, ip measured after 0.5 hrs; format: toxicity, organism-based; design: dose 300 mg/kg, route intraperitoneal; details: in vivo
Mus musculus [16] = assay: Neurotoxicity in Carworth farms No.1 albino mouse assessed as neurological impairment at 30 mg/kg, ip measured after 4 hrs; format: toxicity, organism-based; design: dose 30 mg/kg, route intraperitoneal; details: in vivo
Mus musculus [17] = assay: Neurotoxicity in Carworth farms No.1 albino mouse assessed as neurological impairment at 100 mg/kg, ip measured after 4 hrs; format: toxicity, organism-based; design: dose 100 mg/kg, route intraperitoneal; details: in vivo
Mus musculus [18] = assay: Neurotoxicity in Carworth farms No.1 albino mouse assessed as sedation at 300 mg/kg, ip measured after 4 hrs; format: toxicity, organism-based; design: dose 300 mg/kg, route intraperitoneal; details: in vivo
Rattus norvegicus [19] = assay: Anticonvulsant activity in Sprague-Dawley rat assessed as protection against maximum electroshock at 30 mg/kg, po measured after 0.25 hrs; format: functional, organism-based; design: dose 30 mg/kg
Rattus norvegicus [20] = assay: Anticonvulsant activity in Sprague-Dawley rat assessed as protection against maximum electroshock at 30 mg/kg, po measured after 0.5 hrs; format: functional, organism-based; design: dose 30 mg/kg
Rattus norvegicus [21] = assay: Anticonvulsant activity in Sprague-Dawley rat assessed as protection against maximum electroshock at 30 mg/kg, po measured after 1 hr; format: functional, organism-based; design: dose 30 mg/kg
Rattus norvegicus [22] = assay: Anticonvulsant activity in Sprague-Dawley rat assessed as protection against maximum electroshock at 30 mg/kg, po measured after 2 hrs; format: functional, organism-based; design: dose 30 mg/kg
Rattus norvegicus [23] = assay: Anticonvulsant activity in Sprague-Dawley rat assessed as protection against maximum electroshock at 30 mg/kg, po measured after 4 hrs; format: functional, organism-based; design: dose 30 mg/kg
Rattus norvegicus [24] = assay: Neurotoxicity in Sprague-Dawley rat assessed as neurological impairment at 30 mg/kg, po measured after 0.25 hrs; format: toxicity, organism-based; design: dose 30 mg/kg, route oral; details: in vivo
Rattus norvegicus [25] = assay: Neurotoxicity in Sprague-Dawley rat assessed as neurological impairment at 30 mg/kg, po measured after 0.5 hrs; format: toxicity, organism-based; design: dose 30 mg/kg, route oral; details: in vivo
Rattus norvegicus [26] = assay: Neurotoxicity in Sprague-Dawley rat assessed as neurological impairment at 30 mg/kg, po measured after 1 hr; format: toxicity, organism-based; design: dose 30 mg/kg, route oral; details: in vivo
Rattus norvegicus [27] = assay: Neurotoxicity in Sprague-Dawley rat assessed as neurological impairment at 30 mg/kg, po measured after 2 hrs; format: toxicity, organism-based; design: dose 30 mg/kg, route oral; details: in vivo
Rattus norvegicus [28] = assay: Neurotoxicity in Sprague-Dawley rat assessed as neurological impairment at 30 mg/kg, po measured after 4 hrs; format: toxicity, organism-based; design: dose 30 mg/kg, route oral; details: in vivo
Mus musculus [29] = assay: Anticonvulsant activity in Carworth farms No.1 albino mouse assessed as protection against 6 Hz electric current-induced seizure at 100 mg/kg, ip measured after 0.25 hrs; format: functional, organism-based; design: dose 100 mg/kg
Mus musculus [30] = assay: Anticonvulsant activity in Carworth farms No.1 albino mouse assessed as protection against 6 Hz electric current-induced seizure at 100 mg/kg, ip measured after 0.5 hrs; format: functional, organism-based; design: dose 100 mg/kg
Mus musculus [31] = assay: Anticonvulsant activity in Carworth farms No.1 albino mouse assessed as protection against 6 Hz electric current-induced seizure at 100 mg/kg, ip measured after 1 hrs; format: functional, organism-based; design: dose 100 mg/kg
Mus musculus [32] = assay: Anticonvulsant activity in Carworth farms No.1 albino mouse assessed as protection against 6 Hz electric current-induced seizure at 100 mg/kg, ip measured after 2 hrs; format: functional, organism-based; design: dose 100 mg/kg
Mus musculus [33] = assay: Anticonvulsant activity in Carworth farms No.1 albino mouse assessed as protection against 6 Hz electric current-induced seizure at 100 mg/kg, ip measured after 4 hrs; format: functional, organism-based; design: dose 100 mg/kg
Mus musculus [34] = assay: Neurotoxicity in Carworth farms No.1 albino mouse assessed as neurological impairment at 100 mg/kg, ip measured after 1 hr; format: toxicity, organism-based; design: dose 100 mg/kg, route intraperitoneal; details: in vivo
Mus musculus [35] = assay: Neurotoxicity in Carworth farms No.1 albino mouse assessed as neurological impairment at 100 mg/kg, ip measured after 2 hr; format: toxicity, organism-based; design: dose 100 mg/kg, route intraperitoneal; details: in vivo
Mus musculus [36] = assay: Neurotoxicity in Carworth farms No.1 albino mouse assessed as inability to grasp rotarod at 100 mg/kg, ip measured after 0.25 hr; format: toxicity, organism-based; design: dose 100 mg/kg, route intraperitoneal; details: in vivo
Mus musculus [37] = assay: Neurotoxicity in Carworth farms No.1 albino mouse assessed as inability to grasp rotarod at 100 mg/kg, ip measured after 0.5 hr; format: toxicity, organism-based; design: dose 100 mg/kg, route intraperitoneal; details: in vivo
Mus musculus [38] = assay: Anticonvulsant activity in ip dosed Carworth farms No.1 albino mouse assessed as protection against 6 Hz electric current-induced seizure measured after 0.25 hrs; format: functional
Mus musculus [39] = organism: Mus musculus; assay: Anticonvulsant activity in electric shock-induced Carworth farms No.1 albino mouse assessed as time of peak effect; format: functional
Mus musculus [40] = assay: Anticonvulsant activity in ip dosed Carworth farms No.1 albino mouse assessed as protection against maximum electroshock; format: functional
Mus musculus [41] = assay: Anticonvulsant activity in ip dosed Carworth farms No.1 albino mouse assessed as protection against subcutaneous metrazole-induced seizures; format: functional
Mus musculus [42] = organism: Mus musculus; assay: Anticonvulsant activity in maximum electroshock-induced Carworth farms No.1 albino mouse assessed as time of peak effect; format: functional
Mus musculus [43] = assay: Neurotoxicity in Carworth farms No.1 albino mouse assessed as neurological impairment at 300 mg/kg, ip measured after 4 hrs; format: toxicity, organism-based; design: dose 300 mg/kg, route intraperitoneal; details: in vivo
Mus musculus [44] = assay: Anticonvulsant activity in Carworth farms No.1 albino mouse assessed as protection against maximum electroshock at 100 mg/kg, ip measured after 2 hrs; format: functional, organism-based; design: dose 100 mg/kg
Mus musculus [45] = assay: Anticonvulsant activity in Carworth farms No.1 albino mouse assessed as protection against subcutaneous metrazole-induced seizures at 100 mg/kg, ip measured after 2 hrs; format: functional, organism-based; design: dose 100 mg/kg

What does the source list for O=C1NC(=O)[C@@H]2CCCCN2[C@H]1c1ccccc1?
Activity (Mus musculus [1]): inactive; Activity (Mus musculus [2]): Active; Activity (Mus musculus [3]): Active; Activity (Mus musculus [4]): inactive; Activity (Mus musculus [5]): inactive; Activity (Mus musculus [6]): Active; Activity (Mus musculus [7]): inactive; Activity (Mus musculus [8]): Active; Activity (Mus musculus [9]): Active; Activity (Mus musculus [10]): inactive; Activity (Mus musculus [11]): inactive; Activity (Mus musculus [12]): Active; Activity (Mus musculus [13]): Non-toxic; Activity (Mus musculus [14]): Toxic; Activity (Mus musculus [15]): Toxic; Activity (Mus musculus [16]): Non-toxic; Activity (Mus musculus [17]): Non-toxic; Activity (Mus musculus [18]): Toxic; Activity (Rattus norvegicus [19]): inactive; Activity (Rattus norvegicus [20]): inactive; Activity (Rattus norvegicus [21]): inactive; Activity (Rattus norvegicus [22]): inactive; Activity (Rattus norvegicus [23]): Active; Activity (Rattus norvegicus [24]): Non-toxic; Activity (Rattus norvegicus [25]): Non-toxic; Activity (Rattus norvegicus [26]): Non-toxic; Activity (Rattus norvegicus [27]): Non-toxic; Activity (Rattus norvegicus [28]): Non-toxic; Activity (Mus musculus [29]): Active; Activity (Mus musculus [30]): Active; Activity (Mus musculus [31]): Active; Activity (Mus musculus [32]): Active; Activity (Mus musculus [33]): inactive; Activity (Mus musculus [34]): Non-toxic; Activity (Mus musculus [35]): Non-toxic; Activity (Mus musculus [36]): Toxic; Activity (Mus musculus [37]): Toxic; ED50 (Mus musculus [38]): 27.2 mg/kg; Time (Mus musculus [39]): 0.25 h

Which results are given for O=C1NC(=O)C(c2ccccc2)(c2ccccc2)N1 [PHENYTOIN]?
ED50 (Mus musculus [40]): 5.64 mg/kg; ED50 (Mus musculus [41]): > 50 mg/kg; Time (Mus musculus [42]): 1 h

With Cl.O=C1[C@H](c2ccccc2)N2CCCC[C@H]2C(=O)N1Cc1ccccc1 as the compound, how does the Activity (Mus musculus [1]) read?
Its Activity is “inactive”.

And the Activity (Mus musculus [2])?
The Activity was “inactive”.

What about the Activity (Mus musculus [3]) of the same compound?
Its Activity is “inactive”.

And the Activity (Mus musculus [4])?
The Activity was “inactive”.

What about the Activity (Mus musculus [5]) of the same compound?
Its Activity is “inactive”.

What about the Activity (Mus musculus [6]) of the same compound?
The Activity was “Active”.

And the Activity (Mus musculus [7])?
The Activity was “inactive”.

What about the Activity (Mus musculus [8]) of the same compound?
The Activity was “inactive”.

What about the Activity (Mus musculus [9]) of the same compound?
The Activity was “inactive”.

What about the Activity (Mus musculus [10]) of the same compound?
The Activity was “inactive”.

And the Activity (Mus musculus [11])?
Its Activity is “inactive”.

What about the Activity (Mus musculus [12]) of the same compound?
Its Activity is “inactive”.

What about the Activity (Mus musculus [13]) of the same compound?
Its Activity is “Non-toxic”.

And the Activity (Mus musculus [14])?
The Activity was “Non-toxic”.

What about the Activity (Mus musculus [15]) of the same compound?
Its Activity is “Non-toxic”.

What about the Activity (Mus musculus [16]) of the same compound?
Its Activity is “Non-toxic”.

What about the Activity (Mus musculus [17]) of the same compound?
The Activity was “Non-toxic”.

What about the Activity (Mus musculus [43]) of the same compound?
Its Activity is “Non-toxic”.

What about the Activity (Mus musculus [44]) of the same compound?
Its Activity is “Active”.

What about the Activity (Mus musculus [45]) of the same compound?
The Activity was “Active”.
